Laboratory results from ChEMBL document CHEMBL3507680, “University of Dundee, Gates Library screen for HepG2 cell viability”.

Test: Human HepG2 cell viability assay in 384 well format
Assay type: toxicity, cell-based
Parameters: dose 125 nL, time 70.5 hour; cytotoxicity at 70.5 h: concentration not given beside the values
Details: HepG2 cells, read-out: Inhibition

Structure (SMILES) | cytotoxicity at 70.5 h
Cc1nnc(NCc2ccc(N3CCC(CO)CC3)cc2)c(C#N)c1C | -1.7%
N#Cc1cccc(CN(CC(=O)N2CCCC2)CC2CCCO2)c1 (stereo not given) | 0.804%
COc1ccc(CNC(Cn2cncn2)c2ccccc2)cc1C (stereo not given) | -4.57%
O=C(CN(Cc1cccc(F)c1)CC1CCCO1)N1CCCC1 (stereo not given) | 13.7%
Cc1cc(CN(C)CCN(C)c2ccccc2)no1 | 0.0635%
CCSCCC(C)N(C)C(=O)c1ccc(C)o1 (stereo not given) | -1.62%
N#Cc1csc(CN(CC(=O)N2CCCC2)CC2CCCO2)c1 (stereo not given) | 0.764%
CN(CCCNC(=O)Nc1ccc(C#N)cc1)CC(F)(F)F | 40.9%
CN(CCCNC(=O)c1ccc(C#N)cc1)CC(F)(F)F | 5.13%
Cc1ccc(C)c(Oc2ccc(CNC(=O)C3CCS(=O)(=O)C3)cn2)c1 (stereo not given) | -10.1%
COC(=O)c1ccc(OCC(=O)N(C)Cc2ccsc2)c(OC)c1 | -5.54%
COc1ccc(CC(=O)N2CCC(c3nncn3C)CC2)cc1F | -10.5%
Cc1cc(C)c(CNC(=O)N2CCC(N3CCCCC3)CC2)c(=O)[nH]1 | -7.65%
Cc1nc(COc2ccc(OCC(N)=O)cc2)oc1C | -8.19%
O=C1CN(C(=O)c2cc(Cl)ccc2F)c2ccncc2N1 | -8.1%
COc1ccc(Br)cc1CC(=O)Nc1cc(C)n[nH]1 | 25.5%
Cc1nc(COc2ccc(OC(C)C(N)=O)cc2)oc1C (stereo not given) | -0.152%
Cc1cc(C)c(CNC(=O)N2CCC(N3CCNC3=O)CC2)c(C)c1 | -7.95%
Cc1cc(C(=O)N2CC(=O)Nc3cnccc32)c(Cl)cc1F | -1.87%
CC(C)c1nsc(N2CCOC3(CCCC3)C2)n1 | -2.46%
O=C(c1cnc(NCCC2CCCO2)c(Cl)c1)N1CCOCC1 (stereo not given) | -7.98%
COCCN1CCC(NC(=O)NCC2(c3cccc(F)c3)CC2)C1 (stereo not given) | -8.45%
CC1CN(C(=O)NCc2cccc(C#N)c2)CCN1CC(F)(F)F (stereo not given) | -7.28%
Cc1cc(C2CCCN(Cc3ncc(C(C)C)o3)C2)n[nH]1 (stereo not given) | -6.54%

Structure (SMILES) | cytotoxicity at 70.5 h
CCc1nc(C(=O)N2CCOCC2CC(=O)c2ccccc2)c[nH]1 (stereo not given) | -8.59%
O=C(CC1COCCN1C(=O)c1cscn1)c1ccccc1 (stereo not given) | -11.8%
Cc1nc(-c2cccc(C#N)c2)nn1CC1(O)CCCCC1 | 3.88%
N#CCCCOc1cccc(CN2CCCC2c2ccc[nH]2)c1 (stereo not given) | 1.38%
COCc1cccc(C(=O)N2CCCC2)c1 | 4.08%
Cc1cc(Br)ccc1NCC(=O)Nc1cc(C(C)(C)C)no1 | -4.88%
Cc1cc(C(=O)NC2CCN(c3ncccc3C#N)CC2)no1 | -2.85%
Cc1ncsc1C(=O)NC1CCN(c2ncccc2C#N)CC1 | -6.11%
CCc1ccc(C(C)NC(=O)CCc2nc(-c3nnc[nH]3)no2)cc1 (stereo not given) | -4.48%
CCCC(=O)NC1CCCN(C(=O)c2ccc(C)nc2)C1 (stereo not given) | 14.6%
CCc1noc(C)c1C(=O)NCc1cc[nH]n1 | 0.164%
Cn1c(C2CCCCN2C(=O)CN2CCCC2=O)nc2ccccc21 (stereo not given) | 21.3%
CCC(=O)NC1CCCN(C(=O)c2ccc(OCC3CC3)nc2)C1 (stereo not given) | 15.5%
CCc1ccc(C2CCCCCN2C(=O)CNC(=O)C2CC2)o1 (stereo not given) | -1.46%
CCNC(=O)NCc1ccc(CN2CCCC(C)C2)cc1 (stereo not given) | -0.573%
CCc1ccc(C2CCCCCN2C(=O)CNC(=O)NC2CC2)o1 (stereo not given) | -1.33%
Cc1cn2c(n1)CCC(NS(=O)(=O)c1ccc(C)s1)C2 (stereo not given) | -1.48%
N#Cc1cccc(-c2ncnn2CC2(O)CCCCC2)c1 | -3.16%
CC(C)(C)[S+]([O-])CCNC(=O)c1csc(NC2CC2)n1 (stereo not given) | 12.6%
Cc1cc(NC(=O)N2CCOCC2)nn1-c1ccccc1Cl | -5.4%
c1ncc2c(n1)CN(Cc1cn3ccsc3n1)CC2 | -4.44%
CC(NC1(CNC(=O)NC2CC2)CCOCC1)c1ccccc1 (stereo not given) | 14.3%
COCCOCC(=O)Nc1ccc(F)cc1C | 11.3%
Cc1ccc(C(=O)N(C)Cc2cc(Br)cs2)cn1 | -8.7%

Structure (SMILES) | cytotoxicity at 70.5 h
CC(C)C(=O)NCCC(=O)N1CCN(c2ccccn2)CC1 | -4.63%
Cc1nc(C2(NCC(=O)NC(=O)NCC(F)(F)F)CCCCC2)no1 | 13.9%
Cc1ncsc1C(=O)N1CCN(Cc2cscn2)CC1 | -1.83%
O=C(NCCCNC(=O)c1ccc(F)cc1F)c1cccc(O)c1 | -1.34%
Cc1noc(C(C)N2CCN(CC(=O)N3CCCC3)CC2)n1 (stereo not given) | -1.93%
Cc1noc(C(C)N2CCN(CCC(=O)N3CCOCC3)CC2)n1 (stereo not given) | -5.76%
COc1cccc(CC(=O)NCC(Cc2ccc(F)cc2)C(N)=O)c1 (stereo not given) | -4.64%
CC(C)OCCC(=O)NCCC(=O)N1CCN(c2ccccn2)CC1 | -3.84%
COCCOCC(=O)Nc1ccc(C)cc1Cl | -0.473%
O=C(C1CC=CC1)N1CCC2(CC1)OCCO2 | -4.94%
CCn1cnnc1C1CCN(C(=O)c2ccc(OC(C)C)nc2)CC1 | 5.53%
CCCc1nc(C)c(C(=O)Nc2cccc(C)n2)s1 | 23.8%
CC(C)c1ncc(C(=O)N2CCOCC2CC(=O)c2ccco2)s1 (stereo not given) | -2.34%
COCCN1C(=O)CC(N2CCN(c3ccccc3)CC2)C1=O (stereo not given) | -3.99%
CCOc1ncccc1NC(=O)c1ccc(C)s1 | -7.78%
Fc1ccc(C2CCCN2Cc2nnnn2C2CC2)cc1 (stereo not given) | 28.2%
CC1CN(C(=O)Nc2cccc(CN3CCOC3=O)c2)CCO1 (stereo not given) | -9.66%
O=C(Nc1cccc(CN2CCOC2=O)c1)N1CCCC1 | -6.57%
CC1CCCN(C(=O)Nc2cccc(CN3CCOC3=O)c2)C1 (stereo not given) | 35.6%
CC(C)NC(=O)c1nnn(-c2ccccc2)c1C1CC1 | -6.4%
O=C(NC1CC1)c1nnn(-c2cccc(C(F)(F)F)c2)c1C1CC1 | -8.39%
CCN1CCC(NC(=O)c2ccc(F)cc2I)CC1 | -7.1%
Cc1cccc(CNC(=O)Nc2cc(C(F)(F)F)c[nH]c2=O)n1 | -6.24%
NC(=O)COc1ccc(CNCc2c(F)cccc2F)cc1 | -3.08%

Structure (SMILES) | cytotoxicity at 70.5 h
CCc1nnc2n1CCN(C(=O)c1ccc3[nH]nnc3c1)C2 | -8.74%
CCc1nnc2n1CCN(C(=O)c1ccc3c(c1)[nH]c(=O)n3C)C2 | -2.36%
Cc1nc2ccc(C(=O)N3CCn4c(C)nnc4C3)cc2nc1C | -5.63%
Cc1cccc(-c2noc(CNC(C)Cn3cc(C)cn3)n2)c1 (stereo not given) | -0.846%
CCc1nnc2n1CCN(C(=O)c1ccc3c(c1)nnn3C)C2 | -0.825%
Cc1cnn(CC(C)NCc2nc(-c3ccoc3)no2)c1 (stereo not given) | 38.1%
Cc1n[nH]c(C)c1NC(=O)CN1CCCC1Cn1cncn1 (stereo not given) | -0.918%
COc1cccc(CNCCc2cc(F)cc3c2OCOC3)c1OC | 5.71%
CN(C)c1cccc(C2CCCN2Cc2nnnn2C2CC2)c1 (stereo not given) | -1.65%
COc1cc(CNCCc2cc(F)cc3c2OCOC3)cc(OC)c1 | 1.52%
O=C(Nc1cccc(CN2CCOC2=O)c1)N1CCCCCC1 | 35.8%
CCC(=O)N1CCCC1c1ccsc1 (stereo not given) | -5.78%
Cc1nc(C)n(CC2CCCN(CC(=O)Nc3cccnc3)C2)n1 (stereo not given) | -0.663%
O=C(CN1CCCC1Cn1cncn1)NCC1(c2ccccc2)CC1 (stereo not given) | -5.75%
CC(Cn1cccn1)NCc1nc(-c2cccnc2)no1 (stereo not given) | -3.96%
Cc1nc(-c2ccsc2)ccc1C(=O)N(C)CC1CC1 | -7.16%
CCCc1n[nH]c(C2CN(C(=O)CCn3cc(C)cn3)CCO2)n1 (stereo not given) | 4.48%
CS(=O)(=O)c1ccc(C(=O)N2CCCC(n3cncn3)C2)o1 (stereo not given) | 21.1%
CCc1cnc(CN(C)C2CCN(CCCNS(C)(=O)=O)C2)o1 (stereo not given) | -2.35%
CS(=O)(=O)Cc1ccc(C(=O)N2CCCC(n3cncn3)C2)o1 (stereo not given) | 1.66%
COc1ccc(C2CCCN2S(=O)(=O)N(C)C)cc1 (stereo not given) | -6.59%
CCCOc1ccc(Cl)cc1NC(=O)NCCC(=O)N(C)C | 4.12%
CCCOc1cc(C)ccc1NC(=O)NCCNC(C)=O | 3.53%
CCOc1ccccc1NC(=O)N(CCO)Cc1ccsc1 | 2.23%

Structure (SMILES) | cytotoxicity at 70.5 h
CC(C)(C(=O)NCC(=O)N1CCCC1)c1ccccc1F | 3.99%
CC(C)c1ncncc1C(=O)NCCN1CCCCCC1 | -0.207%
CC(C)c1nnc2n1CC(CNCc1ccsc1)CC2 (stereo not given) | 2.53%
CC(C)N(CCC#N)C(=O)c1cnc(-c2ccc3c(c2)OCO3)s1 | -0.296%
O=C(CCc1ccsc1)NC1CCN(c2cccc(F)c2)CC1 | 4.39%
CCCc1ccc(S(=O)(=O)NC(=O)CCc2cscn2)cc1 | 4.19%
O=C(CCc1ccc(Cl)cc1)NC1CCN(c2cccc(F)c2)CC1 | 10.5%
CC(C)c1ncncc1C(=O)NCCN1CCCCC1C (stereo not given) | -1.51%
Cc1nn(C)c(N2CCOCC2)c1CNCc1cccnc1 | 24.7%
Cc1ccc(-c2n[nH]cc2CNCCn2cccn2)o1 | 2.17%
CCc1sc(C(=O)Nc2cnn(CCN(C)C)c2)cc1C | -17.9%
O=C(c1ccc(N2CCCC2)nn1)N1CCCc2cc(F)c(F)cc21 | -1.17%
O=C(c1ccc(N2CCCC2)nn1)N1CCCc2ccc(F)cc21 | 8.25%
COc1ccc(-c2noc(C3CCS(=O)(=O)C3)n2)cc1OC (stereo not given) | -10.7%
COCC(=O)NC(c1ccc(Cl)cc1)C(F)(F)F (stereo not given) | -12.5%
Cc1cc(CS(=O)(=O)N(C)C(C)c2ccc(F)cc2)on1 (stereo not given) | -7.52%
O=C(CNC(=O)N(Cc1ccoc1)C1CCCCC1)N1CCCC1 | -7.2%
CCc1nc(CNc2ccc(C(=O)NCc3ccco3)cc2C)no1 | -9.99%
Cc1cnc(CNc2ccc(C(=O)NCc3ccco3)cc2C)o1 | 6.63%
CC(NCCCC#N)c1ccc(-c2ccncc2)cc1 (stereo not given) | 14.3%
O=C(NCC1(c2ccc(F)cc2)CCC1)N1CCC2(CCOCC2)C1 | 7.66%
Cc1nnc(CN(Cc2ccccc2Br)C2CC2)o1 | -8.83%
NC(=O)COc1ccc(CNCc2ccc(F)cc2)cc1 | -4.15%
NC(=O)COc1ccc(CNCc2cc(F)cc(F)c2)cc1 | -8.73%
